Test results: patent US4292317A, “1,4-Dihydro-quinoline-3-carboxylic acid derivatives, process for their preparation and compositions containing them” (Laboratorie Roger Bellon, priority 1977, dated 1981)
In brackets after ≈: the same amount, converted by molar mass.

Assays:
Escherichia coli P 5101 = assay: Systemic infection in mice; type: in vivo; conditions: P5101, po, 168 h
Protocol: (§1) The activity of the compounds according to the invention against systemic infections in mice, caused by Staphylococcus 50,774, Streptococcus pyogenes A 65, Pseudomonas aeruginosa No. 12 and Escherichia coli P 5101, has been studied.
(§2) The infections were set up by intraperitoneal injection of a suspension of the bacterial culture corresponding to the germ studied. The products were administered orally at the time of injection, and 6 hours later. […] Aureus and for 7 days for the other germs.
(§3) Oxolinic acid was used as the reference substance.

[1] = system: Pseudomonas aeruginosa No. 12; assay: Systemic infection in mice; type: in vivo; conditions: NO.12, po, 168 h
Protocol: as §1, §2, §3

Staph. aureus 50,774 = assay: Systemic infection in mice; type: in vivo; conditions: Staphylococcus aureus, po, 336 h
Protocol: as §1, §2, §3

Strept. pyogenes A. 65 = assay: Systemic infection in mice; type: in vivo; conditions: Streptococcus pyogenes, A.65, po, 168 h
Protocol: as §1, §2, §3

Arizona 6.211 = assay: M.I.C. in vitro, nutrient agar dilution; type: cell-based; conditions: 18 h; Table III; Arizona 6.211; read-out: M.I.C.
Protocol: (§4) After sterilisation at 120° C., the pH was 6.8.
(§5) The minimum inhibitory concentrations (M.I.C.) were determined by dilution of the test compounds in this mixture, the concentration ranging from 0.05 to 100 μg/cm^3 in a geometric progression with a factor of 2.
(§6) The inoculation of the dishes was carried out by means of a multiple inoculator with 10^-3 dilutions of 18 hour old broth cultures.
(§7) The dishes were placed in an oven at 37° C. and the readings were taken afer an incubation time of 18 hours. The M.I.C. was taken as the lowest concentration which inhibited a culture.

B. subtilis = assay: M.I.C. in vitro, nutrient agar dilution; type: cell-based; conditions: Bacillus subtilis, 18 h; Table III; B. Subtilis; read-out: M.I.C.
Protocol: as §4, §5, §6, §7

Bord. bronchis. 4.617 = assay: M.I.C. in vitro, nutrient agar dilution; type: cell-based; conditions: 18 h; Table III; Bord. bronchis. 4.617; read-out: M.I.C.
Protocol: as §4, §5, §6, §7

Esch. coli 111 B4 = assay: M.I.C. in vitro, nutrient agar dilution; type: cell-based; conditions: Escherichia coli, 18 h; Table III; Esch. coli 111 B4
Protocol: as §4, §5, §6, §7

Esch. coli 54.127 O.M.S. = assay: M.I.C. in vitro, nutrient agar dilution; type: cell-based; conditions: Escherichia coli, 18 h; Table III; Esch. coli 54.127 O.M.S.; read-out: M.I.C.
Protocol: as §4, §5, §6, §7

Esch. coli 95 I.S.M. = assay: M.I.C. in vitro, nutrient agar dilution; type: cell-based; conditions: Escherichia coli, 18 h; Table III; Esch. coli 95 I.S.M.; read-out: M.I.C.
Protocol: as §4, §5, §6, §7

Klebs. pneum. 10.031 = assay: M.I.C. in vitro, nutrient agar dilution; type: cell-based; conditions: 18 h; Table III; Klebs. pneum. 10.031; read-out: M.I.C.
Protocol: as §4, §5, §6, §7

Pr. mirabilis Nig = assay: M.I.C. in vitro, nutrient agar dilution; type: cell-based; conditions: Proteus mirabilis, 18 h; Table III; Pr. mirabilis Nig; read-out: M.I.C.
Protocol: as §4, §5, §6, §7

Pr. morganii A.236 = assay: M.I.C. in vitro, nutrient agar dilution; type: cell-based; conditions: Morganella morganii, 18 h; Table III; Pr. morganii A. 236; read-out: M.I.C.
Protocol: as §4, §5, §6, §7

Pr. vulgaris 12-53 = assay: M.I.C. in vitro, nutrient agar dilution; type: cell-based; conditions: Proteus vulgaris, 1253, 18 h; Table III; Pr. vulgaris 12-53; read-out: M.I.C.
Protocol: as §4, §5, §6, §7

Providentia 0223 = assay: M.I.C. in vitro, nutrient agar dilution; type: cell-based; conditions: 18 h; Table III; Providentia 0223; read-out: M.I.C.
Protocol: as §4, §5, §6, §7

Ps. aeruginosa 72.345 = assay: M.I.C. in vitro, nutrient agar dilution; type: cell-based; conditions: Pseudomonas aeruginosa, 18 h; Table III; Pd. aeruginosa 72.345; read-out: M.I.C.
Protocol: as §4, §5, §6, §7

Ps. aeruginosa A.22 = assay: M.I.C. in vitro, nutrient agar dilution; type: cell-based; conditions: Pseudomonas aeruginosa, 18 h; Table III; Ps. aeruginosa A.22; read-out: M.I.C.
Protocol: as §4, §5, §6, §7

S. enteritidis Danysz = assay: M.I.C. in vitro, nutrient agar dilution; type: cell-based; conditions: Salmonella enterica, 18 h; Table III; S. enteritidis Danysz; read-out: M.I.C.
Protocol: as §4, §5, §6, §7

S. oranienburg 1066 = assay: M.I.C. in vitro, nutrient agar dilution; type: cell-based; conditions: Salmonella enterica, 18 h; Table III; S. oranienburg 1066; read-out: M.I.C.
Protocol: as §4, §5, §6, §7

Serratia = assay: M.I.C. in vitro, nutrient agar dilution; type: cell-based; conditions: 18 h, Table III, read-out: M.I.C.
Protocol: as §4, §5, §6, §7

Sh. sonnei I.P.S. = assay: M.I.C. in vitro, nutrient agar dilution; type: cell-based; conditions: Shigella sonnei, 18 h; Table III; Sh. sonnei I.P.S.; read-out: M.I.C.
Protocol: as §4, §5, §6, §7

Staph. 209 P = assay: M.I.C. in vitro, nutrient agar dilution; type: cell-based; conditions: 18 h; Table III; Staph. 209 P; read-out: M.I.C.
Protocol: as §4, §5, §6, §7

Staph. 9.144 = assay: M.I.C. in vitro, nutrient agar dilution; type: cell-based; conditions: 18 h; Table III; Staph. 9.144; read-out: M.I.C.
Protocol: as §4, §5, §6, §7

Strepto A 561 = assay: M.I.C. in vitro, nutrient agar dilution; type: cell-based; conditions: 18 h; Table III; Strepto A 561
Protocol: as §4, §5, §6, §7

Strepto D.M. 19 = assay: M.I.C. in vitro, nutrient agar dilution; type: cell-based; conditions: 18 h; Table III; Strepto D.M. 19; read-out: M.I.C.
Protocol: as §4, §5, §6, §7

Salm. typhi 0901 = assay: microbe, parasite or virus in culture; type: cell-based; conditions: Salmonella enterica, 18 h; Table III; Salm. typhi 0901
Protocol: as §4, §5, §6, §7

## CCn1cc(C(=O)O)c(=O)c2cc(F)c(N3CCN(C)CC3)cc21 [Example 20, 1-Ethyl-6-fluoro-7-(4-methylpiperazinyl)-4-oxo-1,4-dihydro-quinoline-3-carboxylic acid]
Escherichia coli P 5101
  ED50: 1.8 mg/kg
  ED90: 2.8 mg/kg
[1]
  ED50: 7.8 mg/kg
  ED90: 11.5 mg/kg
Staph. aureus 50,774
  ED50: 2.9 mg/kg
  ED90: 9.3 mg/kg
Strept. pyogenes A. 65
  ED50: 65 mg/kg
  ED90: 103 mg/kg

## C=CCn1cc(C(=O)O)c(=O)c2cc(F)c(N3CCN(C)CC3)cc21 [Example 34, 1-Allyl-6-fluoro-7-(4-methylpiperazinyl)-4-oxo-1,4-dihydro-quinoline-3-carboxylic acid]
Arizona 6.211
  MIC: 0.4 µg/mL (≈ 1.16 µM)
B. subtilis
  MIC: 0.4 µg/mL (≈ 1.16 µM)
Bord. bronchis. 4.617
  MIC: 0.2 µg/mL (≈ 0.579 µM)
Esch. coli 111 B4
  MIC: 0.4 µg/mL (≈ 1.16 µM)
Esch. coli 54.127 O.M.S.
  MIC: 0.4 µg/mL (≈ 1.16 µM)
Esch. coli 95 I.S.M.
  MIC: 0.4 µg/mL (≈ 1.16 µM)
Klebs. pneum. 10.031
  MIC: 0.1 µg/mL (≈ 0.29 µM)
Pr. mirabilis Nig
  MIC: 0.8 to 1.6 µg/mL (≈ 2.32 to 4.63 µM)
Pr. morganii A.236
  MIC: 0.05 to 0.2 µg/mL (≈ 0.145 to 0.579 µM)
Pr. vulgaris 12-53
  MIC: 0.2 µg/mL (≈ 0.579 µM)
Providentia 0223
  MIC: 12.5 µg/mL (≈ 36.2 µM)
Ps. aeruginosa 72.345
  MIC: 3.1 µg/mL (≈ 8.98 µM)
Ps. aeruginosa A.22
  MIC: 3.1 µg/mL (≈ 8.98 µM)
S. enteritidis Danysz
  MIC: 0.4 to 0.8 µg/mL (≈ 1.16 to 2.32 µM)
S. oranienburg 1066
  MIC: 12.5 µg/mL (≈ 36.2 µM)
Serratia
  MIC: 0.05 to 0.4 µg/mL (≈ 0.145 to 1.16 µM)
Sh. sonnei I.P.S.
  MIC: 0.2 µg/mL (≈ 0.579 µM)
Staph. 209 P
  MIC: 0.8 µg/mL (≈ 2.32 µM)
Staph. 9.144
  MIC: 1.6 µg/mL (≈ 4.63 µM)
Strepto A 561
  MIC: 50 µg/mL (≈ 145 µM)
Strepto D.M. 19
  MIC: 6.2 to 12.5 µg/mL (≈ 18 to 36.2 µM)
Salm. typhi 0901
  MIC: 0.1 µg/mL (≈ 0.29 µM)

## C=Cn1cc(C(=O)O)c(=O)c2cc(F)c(N3CCN(C)CC3)cc21 [Example 41, 6-Fluoro-7-(4-methyl-piperazinyl)-4-oxo-1-vinyl-1,4-dihydro-quinoline-3-carboxylic acid]
Arizona 6.211
  MIC: 0.1 µg/mL (≈ 0.302 µM)
B. subtilis
  MIC: 0.1 µg/mL (≈ 0.302 µM)
Bord. bronchis. 4.617
  MIC: 1.6 µg/mL (≈ 4.83 µM)
Esch. coli 111 B4
  MIC: 0.1 µg/mL (≈ 0.302 µM)
Esch. coli 54.127 O.M.S.
  MIC: 0.1 µg/mL (≈ 0.302 µM)
Esch. coli 95 I.S.M.
  MIC: 0.1 µg/mL (≈ 0.302 µM)
Klebs. pneum. 10.031
  MIC: 0.1 µg/mL (≈ 0.302 µM)
Pr. mirabilis Nig
  MIC: 0.05 µg/mL (≈ 0.151 µM)
Pr. morganii A.236
  MIC: 0.05 µg/mL (≈ 0.151 µM)
Pr. vulgaris 12-53
  MIC: 0.05 µg/mL (≈ 0.151 µM)
Providentia 0223
  MIC: 0.8 µg/mL (≈ 2.41 µM)
Ps. aeruginosa 72.345
  MIC: 0.8 µg/mL (≈ 2.41 µM)
Ps. aeruginosa A.22
  MIC: 0.4 µg/mL (≈ 1.21 µM)
S. enteritidis Danysz
  MIC: 0.1 µg/mL (≈ 0.302 µM)
S. oranienburg 1066
  MIC: 1.6 µg/mL (≈ 4.83 µM)
Serratia
  MIC: 0.4 µg/mL (≈ 1.21 µM)
Sh. sonnei I.P.S.
  MIC: 0.1 µg/mL (≈ 0.302 µM)
Staph. 209 P
  MIC: 0.1 µg/mL (≈ 0.302 µM)
Staph. 9.144
  MIC: 0.2 µg/mL (≈ 0.604 µM)
Strepto A 561
  MIC: 12.5 µg/mL (≈ 37.7 µM)
Strepto D.M. 19
  MIC: 3.1 µg/mL (≈ 9.36 µM)
Salm. typhi 0901
  MIC: 0.1 µg/mL (≈ 0.302 µM)
